Converted amounts (≈) assume the structure as drawn.
Columns and labels:
[1] = tested on: Anas platyrhynchos; conditions: reproductive
[2] = tested on: Apis mellifera; conditions: acute, duration: 48 hours, mortality
[3] = tested on: Bibionidae; conditions: chronic/long-term; duration: 21 days; other
[4] = tested on: Canidae; conditions: chronic; duration: 52 weeks; oral; Dog Other; organ weight
[5] = tested on: Colinus virginianus; conditions: acute, oral, mortality
[6] = tested on: Cyprinodon variegatus; conditions: acute; duration: 96 hours; mortality
[7] = tested on: Daphnia magna; conditions: chronic/long-term; duration: 21 days; mobility
[8] = tested on: Pimephales promelas; conditions: chronic/long-term; duration: 33 days; other
[9] = tested on: Rattus norvegicus
[10] = tested on: Tagia sp.; conditions: acute; duration: 14 days; mortality
[11] = tested on: Aphidius rhopalosiphi; experiment: LR50; higher = less toxic; conditions: acute; duration: 48 hours; mortality
[12] = tested on: Typhlodromus pyri; experiment: LR50; higher = less toxic; conditions: acute; duration: 7 days; mortality

Compound: CCOC(=O)OC1=C(c2cc(C)ccc2C)C(=O)NC12CCC(OC)CC2 (stereo unspecified) [Spirotetramat]
- NOAEL [1]: 4 mg/kg-day
- LD50 ([2]; dermal): > 100 µg/piece
- LD50 ([2]; oral, unspecified): > 107 µg/piece
- NOEC [3]: 0.1 mg/L
- NOAEL [4]: 5 mg/kg-day
- LC50 ([5]; diet): > 475 mg/kg-day
- LD50 [5]: > 2000 mg/kg-day
- LC50 [6]: 1.96 mg/L (≈ 5.25 µM)
- NOEC [7]: 2 mg/L
- NOEC [8]: 0.534 mg/L
- NOAEL ([9]; acute, clinical signs): 100 mg/kg-day
- LD50 ([9]; acute, oral, mortality): > 2000 mg/kg-day
- NOAEL ([9]; reproduction developmental, body weight): 70 mg/kg-day
- LC50 [10]: > 1000 mg/kg
- LR50 [11]: 115 g/ha
- LR50 [12]: 0.333 g/ha
